Assay results from US20230248671A1, “USE OF BETA-1 ADRENERGIC RECEPTOR ANTAGONIST FOR PREPARING COMPOSITIONS FOR REDUCING EPITHELIAL CELL DAMAGE INDUCED BY EPIDERMAL GROWTH FACTOR RECEPTOR INHIBITORS AND INHIBITING CANCER CELLS” (CHANG GUNG MEMORIAL HOSPITAL, LINKOU, priority 2020, published 2023).

Experiments:
in vitro = settings: human
Experimental: (§1) A fixed number (7×10^4 cells/dish) of HaCaT cells (human skin keratinocytes) were seeded in each well of a multi-well plate (24 wells). […] MTT (3-(4,5-dimethylthiazol-2-yl)-2,5-diphenyltetrazolium bromide and 300λ bromide-3-(4,5-dimethyl-2-thiazole)-2,5-diphenyltetrazolium) were added and 1 hour later, the supernatant was removed, DMSO was added and the resultant was shook. 200 λ/well of liquid was extracted and added into another multi-well plate (96 wells). ELISA was used to measure the absorbance value (OD570, optical density 570 nm) and calculate the cell cell viability. The experiment was repeated 3 times.
(§2) The MTT test was carried out to examine the effect of β-1 adrenergic receptor antagonists on epithelial cells.
(§3) The MTT test was carried out to examine the effect of first administering β-1 adrenergic receptor antagonist followed by EGFR-TKI on epithelial cells.
(§4) A MTT test was conducted to examine the effect of simultaneously administering a β-1 adrenergic receptor antagonist and an EGFR-TKI on epithelial cells. […] Referring to FIG. 4, FIG. 4 is a schematic diagram showing the c epithelial cell viability after simultaneously contacting an EGFR-TKI and a β-1 adrenergic receptor antagonist with normal epithelial cells.
(§5) The effects on HaCaT cells as well as A549 cancer cells was examined.

[1] = tested on: HaCaT cells (human skin keratinocytes); test: in vitro
Experimental: as §1, §2, §3, §4, §5

[2] = tested on: A549 cancer cells (EGFR-mutated lung cancer cells); test: MTT test (cell viability) on A549 cancer cells; type: cell-based
Experimental: as §1
(§6) The effect of EGFR-TKI alone and the simultaneous administration of a β-1 adrenergic receptor antagonist and an EGFR-TKI on cancer cells was examined.
as §5

[3] = tested on: PC9 cancer cell (EGFR-mutated cancer cell); settings: afatinib and betaxolol administered simultaneously
Experimental: as §1, §6

[4] = tested on: EGFR monoclonal antibody-induced papulopustular rash; settings: 0.25% (w/w) topical, day 30 of treatment
Experimental: (§7) Patients with EGFR-TKI or anti-EGFR monoclonal antibodies induced epithelial cell damage, for example, rosacea or papulopustular rash, were recruited. A composition comprising β-1 adrenergic receptor antagonist was formulated for topical use, and was administered to recruited patients to observe its therapeutic effect.

EGFRI-induced rosacea = settings: 0.25% (w/w) topical
Experimental: as §7

**Q.** What does the source list for `CC(C)NCC(O)COc1ccc(CCOCC2CC2)cc1` (centres unmarked) [Betaxolol, betaxolol]?
**A.** viability at 24 h, 10 μM (in vitro; Cell viability (%)): 92.8%; viability at 24 h, 20 μM (in vitro; Cell viability (%)): 91.3%; viability at 24 h, 40 μM (in vitro; Cell viability (%)): 91.4%; viability at 24 h, 80 μM (in vitro; Cell viability (%)): 90.1%; viability at 24 h, 100 μM (in vitro; Cell viability (%)): 88.1%; viability at 24 h (in vitro; HaCaT cell viability, β-1 adrenergic receptor antagonist only): 100%; HaCaT cell viability compared with afatinib only ([1]; betaxolol and afatinib added simultaneously, 24 hours): much improved; effect on cell viability of normal epithelial cells (in words) ([1]; betaxolol only, up to 100 μM): basically does not affect the cell viability; inhibitory effect and cytotoxicity on A549 compared with afatinib only ([2]; afatinib and betaxolol together): inhibitory effect was better and cytotoxicity is higher; A549 cancer cell viability, betaxolol only ([2]; cells only in contact with betaxolol): 100%; inhibitory effect and cytotoxicity on PC9 compared with afatinib only [3]: inhibitory effect is better and cytotoxicity is higher; improvement of papules and pustules of Cetuximab-induced papulopustular rash [4]: significantly improved; improvement of osimertinib-induced rosacea (EGFRI-induced rosacea; 4th day of treatment): significantly improved; improvement of rosacea (FIG. 12) (EGFRI-induced rosacea; 7th day of treatment): improved significantly; improvement of afatinib-induced rosacea (EGFRI-induced rosacea; 14th day of treatment compared to the 1st day): significantly improved

**Q.** Which “HaCaT cell viability compared with afatinib only” value ([1]; afatinib concentration fixed, timolol concentration adjusted) does the source give for `CC(C)(C)NC[C@H](O)COc1nsnc1N1CCOCC1` [timolol, Timolol] here?
**A.** significantly decreased

**Q.** And the “A549 cancer cell viability (change, in words)” value ([2]; timolol and afatinib simultaneously)?
**A.** did not change significantly

**Q.** What about the “A549 cancer cell viability (change, in words)” value ([2]; timolol increased to 50 μM, with afatinib) of the same compound?
**A.** also increased

**Q.** For `CN(C)C/C=C/C(=O)Nc1cc2c(Nc3ccc(F)c(Cl)c3)ncnc2cc1O[C@H]1CCOC1` [Afatinib, afatinib], which viability at 24 h, 0.1 μM (in vitro) is on record?
**A.** 90.6%

**Q.** What about the viability at 24 h, 0.5 μM (in vitro) of the same compound?
**A.** 89.8%

**Q.** And the viability at 24 h, 1 μM (in vitro)?
**A.** 87.2%

**Q.** What about the viability at 24 h, 2.5 μM (in vitro) of the same compound?
**A.** 64.1%

**Q.** And the viability at 24 h, 5 μM (in vitro)?
**A.** 34.8%

**Q.** And the viability at 1 µM ([2]; Homo sapiens, A549)?
**A.** 101%

**Q.** What about the viability at 2.5 µM ([2]; Homo sapiens, A549) of the same compound?
**A.** 100%

**Q.** And the viability at 5 µM ([2]; Homo sapiens, A549)?
**A.** 85.2%

**Q.** What about the viability at 10 µM ([2]; Homo sapiens, A549) of the same compound?
**A.** 73.4%

**Q.** And the viability at 20 µM ([2]; Homo sapiens, A549)?
**A.** 69.1%

**Q.** And the viability at 50 µM ([2]; Homo sapiens, A549)?
**A.** 26.4%
